{"source": "patent US9260439B2", "about": "“Dihydropyrrolopyrimidine derivatives” (PFIZER INC., priority 2014, dated 2016)", "note": "Where a name gives a salt, the structure may show the parent alone."}
{"target": "truncated PI3Kα (p110α/iSH2 p85α) (Homo sapiens (Human), UniProt P42336)", "sequence (P42336 whole entry, the tested form may be a part)": "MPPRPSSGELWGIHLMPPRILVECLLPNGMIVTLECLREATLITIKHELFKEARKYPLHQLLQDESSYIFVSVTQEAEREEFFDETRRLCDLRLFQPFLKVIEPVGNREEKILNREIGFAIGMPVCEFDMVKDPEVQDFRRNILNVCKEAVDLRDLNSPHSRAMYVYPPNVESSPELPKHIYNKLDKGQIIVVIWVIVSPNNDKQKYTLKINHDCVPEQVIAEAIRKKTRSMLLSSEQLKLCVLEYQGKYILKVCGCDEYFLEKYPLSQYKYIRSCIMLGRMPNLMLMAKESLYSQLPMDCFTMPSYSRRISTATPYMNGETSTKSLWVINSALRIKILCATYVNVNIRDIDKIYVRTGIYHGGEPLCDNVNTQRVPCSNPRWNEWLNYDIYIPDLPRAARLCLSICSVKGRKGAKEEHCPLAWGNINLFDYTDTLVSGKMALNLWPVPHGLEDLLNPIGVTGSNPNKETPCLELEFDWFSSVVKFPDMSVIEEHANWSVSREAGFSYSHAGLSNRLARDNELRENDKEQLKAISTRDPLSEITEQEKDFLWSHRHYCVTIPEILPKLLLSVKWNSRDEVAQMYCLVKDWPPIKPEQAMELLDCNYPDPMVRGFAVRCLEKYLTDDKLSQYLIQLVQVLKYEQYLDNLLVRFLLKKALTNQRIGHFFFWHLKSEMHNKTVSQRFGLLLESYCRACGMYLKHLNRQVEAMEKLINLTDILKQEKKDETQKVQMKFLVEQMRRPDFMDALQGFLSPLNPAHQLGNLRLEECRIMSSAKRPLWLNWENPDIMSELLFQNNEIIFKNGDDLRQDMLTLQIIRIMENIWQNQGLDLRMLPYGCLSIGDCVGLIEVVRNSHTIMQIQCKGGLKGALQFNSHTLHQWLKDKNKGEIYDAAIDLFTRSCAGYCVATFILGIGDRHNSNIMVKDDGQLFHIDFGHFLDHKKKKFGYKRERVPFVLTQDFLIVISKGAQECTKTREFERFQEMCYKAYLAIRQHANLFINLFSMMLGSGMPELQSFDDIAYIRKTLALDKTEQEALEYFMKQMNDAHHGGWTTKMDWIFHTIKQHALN", "assay": "PI3KA_Act fluorescence polarization kinase assay (Ki)", "assay_type": "biochemical", "conditions": "1 mM ATP", "procedure,_shortened": "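p110α/iSH2 p85α (0.5 nM) was reacted with 30 μM sonicated PIP2 in 50 mM HEPES pH 7.4, 150 mM NaCl, 5 mM MgCl2, 1 mM DTT and 0.05% CHAPS for 30 min at room temperature, then stopped with EDTA. PIP3 was detected by fluorescence polarization (GST-Grp1 PH domain/TAMRA-PIP3), and Ki came from a Morrison tight-binding fit.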", "units": {"PI3KA_Act Ki": "nM", "Ki": "nM"}}
{"smiles": "C[C@H]1COCCN1c1nc(-c2cnc(N)nc2)c2c(n1)N([C@@]1(C)CCN(C(=O)[C@H](N)C(F)(F)F)C1)CC2.Cl", "note": "[Example 491, (2S)-2-amino-1-[(3S)-3-{4-(2-aminopyrimidin-5-yl)-2-[(3S)-3-methylmorpholin-4-yl]-5,6-dihydro-7H-pyrrolo[2,3-d]pyrimidin-7-yl}-3-methylpyrrolidin-1-yl]-3,3,3-trifluoropropan-1-one hydrochloride]", "PI3KA_Act Ki": 0.050}
{"smiles": "C[C@H]1COCCN1c1nc(-c2cnc(N)nc2)c2c(n1)N([C@@]1(C)CCN(C(=O)C3(N)CC3)C1)CC2.Cl", "note": "[Example 492, (1-aminocyclopropyl)[(3S)-3-{4-(2-aminopyrimidin-5-yl)-2-[(3S)-3-methylmorpholin-4-yl]-5,6-dihydro-7H-pyrrolo[2,3-d]pyrimidin-7-yl}-3-methylpyrrolidin-1-yl]methanone hydrochloride]", "PI3KA_Act Ki": 0.101}
{"smiles": "C[C@H]1COCCN1c1nc(-c2cnc(N)nc2)c2c(n1)N([C@@]1(C)CCN(C(=O)C3(CN)CC3)C1)CC2.Cl", "note": "[Example 493, [1-(aminomethyl)cyclopropyl][(3S)-3-{4-(2-aminopyrimidin-5-yl)-2-[(3S)-3-methylmorpholin-4-yl]-5,6-dihydro-7H-pyrrolo[2,3-d]pyrimidin-7-yl}-3-methylpyrrolidin-1-yl]methanone hydrochloride]", "PI3KA_Act Ki": 0.061}
{"smiles": "C[C@H]1COCCN1c1nc(-c2cnc(N)nc2)c2c(n1)N([C@@]1(C)CCN(C(=O)[C@@]3(C)CCN3)C1)CC2.Cl", "note": "[Example 494, [(3S)-3-{4-(2-aminopyrimidin-5-yl)-2-[(3S)-3-methylmorpholin-4-yl]-5,6-dihydro-7H-pyrrolo[2,3-d]pyrimidin-7-yl}-3-methylpyrrolidin-1-yl][(2R)-2-methylazetidin-2-yl]methanone hydrochloride]", "PI3KA_Act Ki": 0.046}
{"smiles": "C[C@H]1COCCN1c1nc(-c2cnc(N)nc2)c2c(n1)N([C@@]1(C)CCN(C(=O)[C@]3(C)CCN3)C1)CC2.Cl", "note": "[Example 495, [(3S)-3-{4-(2-aminopyrimidin-5-yl)-2-[(3S)-3-methylmorpholin-4-yl]-5,6-dihydro-7H-pyrrolo[2,3-d]pyrimidin-7-yl}-3-methylpyrrolidin-1-yl][(2S)-2-methylazetidin-2-yl]methanone hydrochloride]", "PI3KA_Act Ki": 0.031}
{"smiles": "C[C@H]1COCCN1c1nc(-c2cnc(N)nc2)c2c(n1)N([C@@]1(C)CCN(C(=O)C3(F)CNC3)C1)CC2", "note": "[Example 496, [(3S)-3-{4-(2-aminopyrimidin-5-yl)-2-[(3S)-3-methylmorpholin-4-yl]-5,6-dihydro-7H-pyrrolo[2,3-d]pyrimidin-7-yl}-3-methylpyrrolidin-1-yl](3-fluoroazetidin-3-yl)methanone hydrochloride]", "Ki": "< 0.018"}
{"smiles": "C[C@H]1COCCN1c1nc(-c2cnc(N)nc2)c2c(n1)N([C@@]1(C)CCN(C(=O)C3(F)CN(C(=O)OC(C)(C)C)C3)C1)CC2", "note": "[Example 497, tert-butyl 3-{[(3S)-3-{4-(2-aminopyrimidin-5-yl)-2-[(3S)-3-methylmorpholin-4-yl]-5,6-dihydro-7H-pyrrolo[2,3-d]pyrimidin-7-yl}-3-methylpyrrolidin-1-yl]carbonyl}-3-fluoroazetidine-1-carboxylate]", "Ki": 0.056}
{"smiles": "COC1CN(C(=O)N2CC[C@](C)(N3CCc4c(-c5cnc(N)nc5)nc(N5CCOC[C@@H]5C)nc43)C2)C1", "note": "[Example 498, [(3S)-3-{4-(2-aminopyrimidin-5-yl)-2-[(3S)-3-methylmorpholin-4-yl]-5,6-dihydro-7H-pyrrolo[2,3-d]pyrimidin-7-yl}-3-methylpyrrolidin-1-yl](3-methoxyazetidin-1-yl)methanone]", "PI3KA_Act Ki": 0.048}
{"smiles": "C[C@H]1COCCN1c1nc(-c2cnc(N)nc2)c2c(n1)N([C@@]1(C)CCN(C(=O)[C@@H]3CCOC3)C1)CC2", "note": "[Example 499, [(3S)-3-{4-(2-aminopyrimidin-5-yl)-2-[(3S)-3-methylmorpholin-4-yl]-5,6-dihydro-7H-pyrrolo[2,3-d]pyrimidin-7-yl}-3-methylpyrrolidin-1-yl][(3R)-tetrahydrofuran-3-yl]methanone]", "PI3KA_Act Ki": 0.048}
{"smiles": "C[C@H]1COCCN1c1nc(-c2cnc(N)nc2)c2c(n1)N([C@@]1(C)CCN(C(=O)[C@H]3CCOC3)C1)CC2", "note": "[Example 500, [(3S)-3-{4-(2-aminopyrimidin-5-yl)-2-[(3S)-3-methylmorpholin-4-yl]-5,6-dihydro-7H-pyrrolo[2,3-d]pyrimidin-7-yl}-3-methylpyrrolidin-1-yl][(3S)-tetrahydrofuran-3-yl]methanone]", "PI3KA_Act Ki": 0.064}
{"smiles": "C[C@H]1COCCN1c1nc(-c2cnc(N)nc2)c2c(n1)N([C@@]1(C)CCN(C(=O)[C@H]3CCCO3)C1)CC2", "note": "[Example 501, [(3S)-3-{4-(2-aminopyrimidin-5-yl)-2-[(3S)-3-methylmorpholin-4-yl]-5,6-dihydro-7H-pyrrolo[2,3-d]pyrimidin-7-yl}-3-methylpyrrolidin-1-yl][(2R)-tetrahydrofuran-2-yl]methanone]", "PI3KA_Act Ki": 0.035}
{"smiles": "CNC(=N)N1CC[C@](C)(N2CCc3c(-c4cnc(N)nc4)nc(N4CCOC[C@@H]4C)nc32)C1", "note": "[Example 504, (3S)-3-{4-(2-aminopyrimidin-5-yl)-2-[(3S)-3-methylmorpholin-4-yl]-5,6-dihydro-7H-pyrrolo[2,3-d]pyrimidin-7-yl}-N,3-dimethylpyrrolidine-1-carboximidamide]", "PI3KA_Act Ki": 0.109}
{"smiles": "CNC(=O)N1CC[C@@](C)(N2CCc3c(-c4cnc(N)nc4)nc(N4CCOC[C@@H]4C)nc32)C1", "note": "[Example 505, (3R)-3-{4-(2-aminopyrimidin-5-yl)-2-[(3S)-3-methylmorpholin-4-yl]-5,6-dihydro-7H-pyrrolo[2,3-d]pyrimidin-7-yl}-N,3-dimethylpyrrolidine-1-carboxamide]", "PI3KA_Act Ki": 0.139}
{"smiles": "CNC(=O)N1CC[C@](C)(N2CCc3c(-c4cnc(N)nc4)nc(N4CCOC[C@@H]4C)nc32)C1", "note": "[Example 506, (3S)-3-{4-(2-aminopyrimidin-5-yl)-2-[(3S)-3-methylmorpholin-4-yl]-5,6-dihydro-7H-pyrrolo[2,3-d]pyrimidin-7-yl}-N,3-dimethylpyrrolidine-1-carboxamide]", "PI3KA_Act Ki": 0.061}
{"smiles": "CCNC(=O)N1CC[C@](C)(N2CCc3c(-c4cnc(N)nc4)nc(N4CCOCC4)nc32)C1", "note": "[Example 507, (3S)-3-[4-(2-aminopyrimidin-5-yl)-2-(morpholin-4-yl)-5,6-dihydro-7H-pyrrolo[2,3-d]pyrimidin-7-yl]-N-ethyl-3-methylpyrrolidine-1-carboxamide]", "Ki": 0.082}
{"smiles": "COC(=O)N1CC[C@](C)(N2CCc3c(-c4cnc(N)nc4)nc(N4CCOC[C@@H]4C)nc32)C1", "note": "[Example 508, methyl (3S)-3-{4-(2-aminopyrimidin-5-yl)-2-[(3S)-3-methylmorpholin-4-yl]-5,6-dihydro-7H-pyrrolo[2,3-d]pyrimidin-7-yl}-3-methylpyrrolidine-1-carboxylate]", "PI3KA_Act Ki": "<0.018"}
{"smiles": "COC(=O)N1CC[C@@](C)(N2CCc3c(-c4cnc(N)nc4)nc(N4CCOC[C@@H]4C)nc32)C1", "note": "[Example 509, methyl (3R)-3-{4-(2-aminopyrimidin-5-yl)-2-[(3S)-3-methylmorpholin-4-yl]-5,6-dihydro-7H-pyrrolo[2,3-d]pyrimidin-7-yl}-3-methylpyrrolidine-1-carboxylate]", "PI3KA_Act Ki": 0.135}
{"smiles": "C[C@@H]1CN(C(=O)OC(C)(C)C)C[C@@]1(C)N1CCc2c(-c3cnc(N)nc3)nc(N3CCOC[C@@H]3C)nc21", "note": "[Example 510, tert-butyl (3S,4R)-3-{4-(2-aminopyrimidin-5-yl)-2-[(3S)-3-methylmorpholin-4-yl]-5,6-dihydro-7H-pyrrolo[2,3-d]pyrimidin-7-yl}-3,4-dimethylpyrrolidine-1-carboxylate]", "PI3KA_Act Ki": "<0.018"}
{"smiles": "C[C@H]1COCCN1c1nc(-c2cnc(N)nc2)c2c(n1)N([C@@]1(C)CN(C(=O)OC(C)(C)C)C[C@@H]1C)CC2", "note": "[Example 511, tert-butyl (3R,4S)-3-{4-(2-aminopyrimidin-5-yl)-2-[(3S)-3-methylmorpholin-4-yl]-5,6-dihydro-7H-pyrrolo[2,3-d]pyrimidin-7-yl}-3,4-dimethylpyrrolidine-1-carboxylate]", "PI3KA_Act Ki": 0.915}
{"smiles": "C[C@H]1COCCN1c1nc(-c2cnc(N)nc2)c2c(n1)N([C@@]1(C)CCN(C(=O)OC(C)(C)C)C1)CC2", "note": "[Example 512, tert-butyl (3S)-3-{4-(2-aminopyrimidin-5-yl)-2-[(3S)-3-methylmorpholin-4-yl]-5,6-dihydro-7H-pyrrolo[2,3-d]pyrimidin-7-yl}-3-methylpyrrolidine-1-carboxylate]", "PI3KA_Act Ki": "<0.018"}
{"smiles": "C[C@H]1COCCN1c1nc(-c2cnc(N)nc2)c2c(n1)N([C@@]1(C)CCN(C)C1)CC2", "note": "[Example 513, 5-{7-[(3S)-1,3-dimethylpyrrolidin-3-yl]-2-[(3S)-3-methylmorpholin-4-yl]-6,7-dihydro-5H-pyrrolo[2,3-d]pyrimidin-4-yl}pyrimidin-2-amine]", "PI3KA_Act Ki": 0.418}
{"smiles": "C[C@H]1COCCN1c1nc(-c2cnc(N)nc2)c2c(n1)N(C1(C)CCNCC1)CC2.Cl", "note": "[Example 516, 5-{2-[(3S)-3-methylmorpholin-4-yl]-7-(4-methylpiperidin-4-yl)-6,7-dihydro-5H-pyrrolo[2,3-d]pyrimidin-4-yl}pyrimidin-2-amine hydrochloride]", "PI3KA_Act Ki": 0.346}
{"smiles": "C[C@H]1COCCN1c1nc(-c2cnc(N)nc2)c2c(n1)N(C1(C)CCN(C(=O)OC(C)(C)C)CC1)CC2", "note": "[Example 519, tert-butyl 4-{4-(2-aminopyrimidin-5-yl)-2-[(3S)-3-methylmorpholin-4-yl]-5,6-dihydro-7H-pyrrolo[2,3-d]pyrimidin-7-yl}-4-methylpiperidine-1-carboxylate]", "PI3KA_Act Ki": 0.036}
{"smiles": "C[C@H]1COCCN1c1nc(-c2cnc(N)nc2)c2c(n1)N(C1(C)CCCN(C(=O)OC(C)(C)C)C1)CC2", "note": "(stereo partly drawn) [Example 520, tert-butyl 3-{4-(2-aminopyrimidin-5-yl)-2-[(3S)-3-methylmorpholin-4-yl]-5,6-dihydro-7H-pyrrolo[2,3-d]pyrimidin-7-yl}-3-methylpiperidine-1-carboxylate]", "PI3KA_Act Ki": 0.663}
